The target of this test is T1, human glycogen phosphorylase a (Homo sapiens, UniProt P06737).
T1 sequence (P06737 2-847 limits assumed): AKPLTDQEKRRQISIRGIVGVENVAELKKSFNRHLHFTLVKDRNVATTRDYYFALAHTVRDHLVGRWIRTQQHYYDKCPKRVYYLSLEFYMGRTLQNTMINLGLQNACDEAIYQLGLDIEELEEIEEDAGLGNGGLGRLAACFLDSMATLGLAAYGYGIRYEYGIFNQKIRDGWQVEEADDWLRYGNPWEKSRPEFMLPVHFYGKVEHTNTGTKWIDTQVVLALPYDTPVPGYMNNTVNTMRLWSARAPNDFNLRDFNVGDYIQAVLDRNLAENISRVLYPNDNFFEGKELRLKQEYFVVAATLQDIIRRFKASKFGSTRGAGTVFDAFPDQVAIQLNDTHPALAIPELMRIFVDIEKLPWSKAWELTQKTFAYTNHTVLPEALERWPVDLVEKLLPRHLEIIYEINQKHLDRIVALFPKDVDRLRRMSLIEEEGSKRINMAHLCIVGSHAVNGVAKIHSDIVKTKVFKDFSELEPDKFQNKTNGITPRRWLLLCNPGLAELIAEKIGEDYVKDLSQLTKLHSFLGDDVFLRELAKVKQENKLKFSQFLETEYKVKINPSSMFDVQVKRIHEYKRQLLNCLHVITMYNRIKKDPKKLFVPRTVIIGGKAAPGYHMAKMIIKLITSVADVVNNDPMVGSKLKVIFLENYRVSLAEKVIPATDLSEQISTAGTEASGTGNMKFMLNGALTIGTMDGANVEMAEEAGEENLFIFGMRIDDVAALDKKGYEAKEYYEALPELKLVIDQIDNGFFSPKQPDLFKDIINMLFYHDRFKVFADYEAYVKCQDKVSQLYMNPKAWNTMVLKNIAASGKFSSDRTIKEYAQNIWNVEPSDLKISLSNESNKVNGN
The test is described as follows: Glycogen phosphorylase a activity test (reverse direction, release of inorganic phosphate). Particulars: 10 μM test substance; duplicate determinations; 40 min at room temperature. Type of test: biochemical. Here is the method: Glycogen Phophorylase a Activity Test
All reactions were carried out as duplicate determinations in 96-well microtiter plates (half area plates, Costar No. 3696), and the change in absorption as a consequence of the formation of the reaction product was measured at the wavelength specified below in a Multiskan Ascent Elisa Reader (Lab Systems, Finland).
In order to measure the GPa enzyme activity in the reverse direction, the conversion of glucose 1-phosphate to glycogen and inorganic phosphate was measured by the general method of Engers et al. (Engers H D, Shechosky S, Madsen N B, Can J Biochem 1970 July;48(7):746–754) with the following modifications: human glycogen phosphorylase a (for example containing 0.76 mg of protein/ml (Aventis Pharma Deutschland GmbH), dissolved in buffer solution E (25 mM β-glycerophosphate, pH 7.0, 1 mM EDTA and 1 mM dithiothreitol) was diluted to a concentration of 10 μg of protein/ml with buffer T (50 mM Hepes, pH 7.0, 100 mM KCl, 2.5 mM EDTA, 2.5 mM MgCl26H2O) and addition of 5 mg/ml of glycogen. Test substances were prepared as a 10 mM solution in DMSO and diluted to 50 μM with buffer solution T. To 10 μl of this solution were added 10 μl of 37.5 mM glucose dissolved in buffer solution T and 5 mg/ml of glycogen, and also 10 μl of a solution of human glycogen phosphorylase a (10 μg of protein/ml) and 20 μl of 2.5 mM glucose 1-phosphate. The base value of the activity of glycogen phosphorylase a in the absence of test substance was determined by adding 10 μl of buffer solution T (0.1% DMSO). The mixture was incubated at room temperature for 40 minutes and the released inorganic phosphate was determined by means of the general method of Drueckes et al. (al (Drueckes P, Schinzel R, Palm D, Anal Biochem 1995 Sep. 1;230(1):173–177) with the following modifications: 50 μl of a stop solution of 7.3 mM of ammonium molybdate, 10.9 mM of zinc acetate, 3.6% of ascorbic acid, 0.9% of SDS are added to 50 μl of the enzyme mixture. After 60 minutes of incubation at 45° C., the absorption was measured at 820 nm. To determine the background absorption, the stop solution was added immediately after the addition of the glucose 1-phosphate solution in a separate reaction. This test was carried out at a concentration of 10 μM of the test substance, in order to determine the respective inhibition of glycogen phosphorylase a by the test substance in vitro.

Regarding `O=C(NC(=O)c1cc(F)c(F)cc1Cl)Nc1ccc(-n2cncn2)cc1F` [Example 1c, 1-(2-chloro-4,5-difluorobenzoyl)-3-(2-fluoro-4-[1,2,4]triazol-1-ylphenyl)urea], the % inhibition (as a rule, the share of the control response that was lost under treatment) at 10 μM came out at 94%.

With `COc1cc(-c2nnc(C)[nH]2)ccc1NC(=O)NC(=O)c1ccc(F)cc1Cl` [Example 2c, 1-(2-chloro-4-fluorobenzoyl)-3-[2-methoxy-4-(5-methyl-4H-[1,2,4]triazol-3-yl)-phenyl]urea], the “% inhibition at 10 μM” value is recorded as 94%.

As for `COc1cc(-c2nnc(C)[nH]2)ccc1NC(=O)NC(=O)c1cc(F)c(F)cc1Cl` [Example 3, 1-(2-chloro-4,5-difluorobenzoyl)-3-[2-methoxy-4-(5-methyl-4H-[1,2,4]triazol-3-yl)-phenyl]urea], the “% inhibition at 10 μM” value is listed as 100%.

As for `COc1cc(-c2nnc(CC(=O)O)[nH]2)ccc1NC(=O)NC(=O)c1ccc(F)cc1Cl` [Example 4d, (5-(4-(3-(2-chloro-4-fluorobenzoyl)ureido)-3-methoxyphenyl)-4H-[1,2,4]triazol-3-yl)acetic acid], the “% inhibition at 10 μM” value worked out at 90%.

In the case of `Cc1nnc(-c2ccccc2NC(=O)NC(=O)c2cc(F)c(F)cc2Cl)n1-c1ccccc1C(=O)O` [Example 5e, 2-(3-{2-[3-(2-chloro-4,5-difluorobenzoyl)ureido]phenyl}-5-methyl-[1,2,4]triazol-4-yl)benzoic acid], the “% inhibition at 10 μM” value amounted to 9%.

For `Cc1nnc(-c2ccc(Cl)c(NC(=O)NC(=O)c3cc(F)c(F)cc3Cl)c2)[nH]1` [Example 6d, 1-(2-chloro-4,5-difluorobenzoyl)-3-[2-chloro-5-(5-methyl-4H-[1,2,4]triazol-3-yl)phenyl]urea], the “% inhibition at 10 μM” value was found to be 100%.

For the compound `O=C(NC(=O)c1cc(F)c(F)cc1Cl)Nc1cc(-c2nnc[nH]2)ccc1Cl` [Example 6e, 1-(2-chloro-4,5-difluorobenzoyl)-3-[2-chloro-5-(4H-[1,2,4]triazol-3-yl)phenyl]urea], the “% inhibition at 10 μM” value stood at 100%.

For the compound `O=C(NC(=O)c1ccc(F)cc1Cl)Nc1ccc(-c2nnn[nH]2)cc1Cl` [Example 7c, 1-(2-chloro-4-fluorobenzoyl)-3-[2-chloro-4-(1H-tetrazol-5-yl)phenyl]urea], the “% inhibition at 10 μM” value came to 100%.

Regarding `O=C(NC(=O)c1cc(F)c(F)cc1Cl)Nc1ccc(-c2nnn[nH]2)cc1Cl` [Example 7d, 1-(2-chloro-4,5-difluorobenzoyl)-3-[2-chloro-4-(1H-tetrazol-5-yl)phenyl)urea], the “% inhibition at 10 μM” value came out at 100%.

On to `O=C(NC(=O)c1ccc(F)cc1Cl)Nc1ccc(-c2nnn[nH]2)cc1OC(F)(F)F` [Example 7e, 1-(2-chloro-4-fluorobenzoyl)-3-[4-(1H-tetrazol-5-yl)-2-trifluoromethoxyphenyl]-urea], for which the “% inhibition at 10 μM” value was found to be 100%.

With `O=C(NC(=O)c1cc(F)c(F)cc1Cl)Nc1ccc(-c2nnn[nH]2)cc1OC(F)(F)F` [Example 7f], the “% inhibition at 10 μM” value was 100%.

On to `COc1cc(-c2nnc(O)o2)ccc1NC(=O)NC(=O)c1ccc(F)cc1Cl` [Example 8c, 1-(2-chloro-4-fluorobenzoyl)-3-[4-(5-hydroxy-[1,3,4]oxadiazol-2-yl)-2-methoxyphenyl]urea], for which the “% inhibition at 10 μM” value amounted to 96%.

On to `COc1nn(-c2ccc(NC(=O)NC(=O)c3ccc(F)cc3Cl)c(OC)c2)c(=O)o1` [Example 9e, 1-(2-chloro-4-fluorobenzoyl)-3-(2-methoxy-4-(5-methoxy-2-oxo-3H-[1,3,4]-oxadiazol-3-yl)phenyl)urea], for which the “% inhibition at 10 μM” value was found to be 20%.

On to `Cc1nnc(-c2ccc(NC(=O)NC(=O)c3ccc(F)cc3Cl)c(Cl)c2)o1` [Example 9g, 1-(2-chloro-4-fluorobenzoyl)-3-[2-chloro-4-(5-methyl-[1,3,4]oxadiazol-2-yl)phenyl]urea], for which the “% inhibition at 10 μM” value was found to be 79%.

With `Nc1nnc(-c2ccccc2NC(=O)NC(=O)c2cc(F)c(F)cc2Cl)o1` [Example 10c, 1-[2-(5-amino-[1,3,4]oxadiazol-2-yl)phenyl]-3-(2-chloro-4,5-difluorobenzoyl)urea], the “% inhibition at 10 μM” value was 100%.

For `O=C(NC(=O)c1cc(F)c(F)cc1Cl)Nc1ccc(-c2noc(=O)[nH]2)cc1OC(F)(F)F` [Example 11d, 1-(2-chloro-4,5-difluorobenzoyl)-3-[4-(5-oxo-4,5-dihydro-[1,2,4]oxadiazol-3-yl)-2-trifluoromethoxyphenyl]urea], the “% inhibition at 10 μM” value turned out to be 100%.

Take `Cc1cc(=O)n(-c2ccc(NC(=O)NC(=O)c3ccc(F)cc3Cl)c(C)c2)[nH]1` [Example 12c, 1-(2-chloro-4-fluorobenzoyl)-3-[2-methyl-4-(3-methyl-5-oxo-2,5-dihydropyrazol-1-yl)phenyl]urea]: the “% inhibition at 10 μM” value is on record as 85%.

For the compound `O=C(NC(=O)c1cc(F)c(F)cc1Cl)Nc1ccccc1-c1nc2ccccc2[nH]1` [Example 13a, 1-[2-(1H-benzoimidazol-2-yl)phenyl]-3-(2-chloro-4,5-difluorobenzoyl)urea], the “% inhibition at 10 μM” value was found to be 48%.

In the case of `Cc1nnc(-c2ccc(Cl)c(NC(=O)NC(=O)c3cc(F)c(F)cc3Cl)c2)[nH]c1=O` [Example 14e, 1-(2-chloro-4,5-difluorobenzoyl)-3-[2-chloro-5-(6-methyl-5-oxo-4,5-dihydro-[1,2,4]triazin-3-yl)phenyl]urea], the “% inhibition at 10 μM” value was 97%.

With `Cc1nnc(-c2ccc(Cl)c(NC(=O)NC(=O)c3cc(F)c(F)cc3Cl)c2)nc1C` [Example 14f, 1-(2-chloro-4,5-difluorobenzoyl)-3-[2-chloro-5-(5,6-dimethyl-[1,2,4]triazin-3-yl)phenyl]urea], the “% inhibition at 10 μM” value turned out to be 100%.

As to `NC(=O)C1CCCN(c2ccc(F)cc2NC(=O)NC(=O)c2ccc(F)cc2Cl)C1` (stereo not shown) [Example 19], the “% inhibition at 10 μM” value was found to be 1.0%.

Consider `O=C(NC(=O)c1ccc(F)cc1Cl)Nc1cc(F)ccc1N1CCC(C(=O)O)CC1` [Example 20], for which the “% inhibition at 10 μM” value is reported as 0.04%.

On to `CS(=O)(=O)c1ccc(N2CCCC(C(=O)O)C2)c(NC(=O)NC(=O)c2cc(F)c(F)cc2Cl)c1` (stereo not shown) [Example 21], for which the “% inhibition at 10 μM” value is 0.3%.

`CS(=O)(=O)c1ccc(N2CCCC(C(=O)O)C2)c(NC(=O)NC(=O)c2ccc(F)cc2Cl)c1` (stereo not shown) [Example 22]: the “% inhibition at 10 μM” value is given as 1.1%.

`O=C(NC(=O)c1cc(F)c(F)cc1Cl)Nc1cc(C(F)(F)F)ccc1N1CCCC(C(=O)O)C1` (stereo not shown) [Example 23]: the “% inhibition at 10 μM” value is 0.03%.

With `O=C(NC(=O)c1ccc(F)cc1Cl)Nc1cc(C(F)(F)F)ccc1N1CCCC(C(=O)O)C1` (stereo not shown) [Example 24], the “% inhibition at 10 μM” value is given as 0.09%.

For the compound `Cc1ccc(NC(=O)NC(=O)c2ccc(F)cc2Cl)c(N2CCCC(C(=O)O)C2)c1` (stereo not shown) [Example 25], the “% inhibition at 10 μM” value is recorded as 0.06%.

For the compound `Cc1ccc(NC(=O)NC(=O)c2cc(F)c(F)cc2Cl)c(N2CCCC(C(=O)O)C2)c1` (stereo not shown) [Example 26], the “% inhibition at 10 μM” value was 0.04%.

Consider `Cc1ccc(N2CCCC(C(=O)O)C2)c(NC(=O)NC(=O)c2ccc(F)cc2Cl)c1` (stereo not shown) [Example 28], for which the “% inhibition at 10 μM” value came to 0.04%.

For the compound `O=C(NC(=O)c1ccc(F)cc1Cl)Nc1cc(Cl)ccc1N1CCCC(C(=O)O)C1` (stereo not shown) [Example 32], the “% inhibition at 10 μM” value came out at 0.03%.

On to `COC(=O)c1ccc(N2CCCC(C(=O)O)C2)c(NC(=O)NC(=O)c2cc(F)c(F)cc2Cl)c1` (stereo not shown) [Example 33], for which the “% inhibition at 10 μM” value was found to be 1.0%.
